The structures appear in SMILES notation. Bounds are passed on as bounds.

The nature of data set [1]: In vitro liver microsome metabolic stability study. It counts as in vitro ADME. The note with it: human liver microsomes 0.5 mg/mL, compound 1 μM, 37° C., up to 60 minutes; read-out: Intrinsic hepatic clearance CLint(liver). How it is done:
Stock solution: 10 mM in DMSO.
Only 54 μL of microsomal working solution, 6 μL of NADPH regeneration system working solution, and 180 μL of stop solution were added to the blank plate.
LC-MS/MS analysis was performed.
On the technique in general: Liver microsomes are a subcellular fraction often used to study metabolism.

The nature of data set [2]: Plasma protein binding rate test, human (equilibrium dialysis). It counts as in vitro ADME. Particulars: 37° C. An excerpt: The sample was thoroughly mixed.
For orientation: Equilibrium dialysis compares concentrations on both sides of a semipermeable membrane.

Data set [3] in a line: In vivo pharmacokinetic study in cynomolgus monkeys. Also noted: species or system cynomolgus monkey. The note with it: cynomolgus monkey, plasma, male cynomolgus monkeys, oral 1 mg/kg.
Another data set deals with T1, CYP2C9 (Homo sapiens, UniProt P11712).
T1 construct: Mixed human liver microsomes (HLM) were purchased from Corning Inc; tissue Corning Inc; host or cells: mixed human liver microsomes (HLM)
Kind of data set: Human liver microsome CYP inhibition assay, CYP2C9. It counts as in vitro ADME. Particulars: role: inhibitor; human liver microsomes, probe substrate; read-out: CYP2C9 half maximal inhibitory concentration IC50. How it is done: (§1) Experimental objective: To evaluate the inhibitory activity of the test substance on human liver microsomal cytochrome P450 isoenzymes (CYP1A2, CYP2C9, CYP2C19, CYP2D6, CYP3A4) using a 5-in-1 probe substrate for CYP isoenzymes.
(§2) Mixed human liver microsomes (HLM) were purchased from Corning Inc. (Steuben, New York, USA) and stored at temperatures below −70° C. prior to use.
(§3) The working solution of the test substance, which had been diluted to a series of concentrations, was added to an incubation system containing human liver microsomes, probe substrates, and auxiliary factors of the circulatory system. A control containing solvent but no test substance served as an enzyme activity control (100%). The concentration of metabolites produced from probe substrates in the samples was determined using Liquid Chromatography-Tandem Mass Spectrometry (LC-MS/MS) method. Non-linear regression analysis of the average percentage activity of the test substance against its concentration was conducted using SigmaPlot (V.11). The IC50 values were calculated using a three-parameter or four-parameter inverse log equation.

Data set [4] in a line: In vivo pharmacokinetics study in rats. Also noted: species or system SD rat. Particulars: rat, plasma, male SD rats, oral 2 mg/kg.
A further data set concerns the target T2, CYP2D6 (Homo sapiens, UniProt P10635).
T2 construct: Mixed human liver microsomes (HLM) were purchased from Corning Inc; tissue Corning Inc; host or cells: mixed human liver microsomes (HLM)
Kind of data set: Human liver microsome CYP inhibition assay, CYP2D6. The note with it: role: inhibitor; human liver microsomes, probe substrate; read-out: CYP2D6 half maximal inhibitory concentration IC50. It counts as in vitro ADME. How it is done:
as §1, §2, §3

Another data set concerns the target T3, human CYP11B2 (Homo sapiens, UniProt P19099).
T3 construct: expressed in transfected cells; host or cells: human renal leiomyoma G402 cell line (monoclonal cells overexpressing human CYP11B2)
T3 sequence (P19099 25-503): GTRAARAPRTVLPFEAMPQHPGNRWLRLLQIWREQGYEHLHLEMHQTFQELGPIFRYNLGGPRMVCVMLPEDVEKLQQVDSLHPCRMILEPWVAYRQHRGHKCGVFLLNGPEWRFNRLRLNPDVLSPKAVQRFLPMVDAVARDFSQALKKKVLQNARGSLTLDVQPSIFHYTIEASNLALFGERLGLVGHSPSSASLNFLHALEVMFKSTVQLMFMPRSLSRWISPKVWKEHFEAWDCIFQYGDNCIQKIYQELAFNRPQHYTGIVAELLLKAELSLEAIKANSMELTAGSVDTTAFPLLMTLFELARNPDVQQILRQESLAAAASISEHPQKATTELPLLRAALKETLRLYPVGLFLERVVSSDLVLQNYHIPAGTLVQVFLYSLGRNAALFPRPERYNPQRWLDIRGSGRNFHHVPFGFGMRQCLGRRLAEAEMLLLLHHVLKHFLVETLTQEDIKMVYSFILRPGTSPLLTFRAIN
Kind of data set: In vitro activity assay of monoclonal cells overexpressing human CYP11B2. Particulars: G402 cells overexpressing human CYP11B2; substrate 11-deoxycorticosterone; 16 hours; aldosterone by LCMS/MS. It counts as cell-based. How it is done: The human renal leiomyoma G402 cell line overexpressing human CYP11B2 was selected to serve as a compound activity screening system.
• 2) Compound details: The test compound was prepared as a 10 μM working concentration using DMSO.
Day 1: Cells were digested, and human renal leiomyoma G402 cells overexpressing human CYP11B2 were resuspended to 1×10^5 cells/mL, with 100 μL seeded into a 96-well plate.
Day 2: The medium was replaced with DMEM/F12 containing 2.5% charcoal-stripped fetal bovine serum; test compounds were added: 5 μL of test compound was added to the cell culture medium to achieve final concentrations of 10000, 2500, 625, 156.25, 39.06, 9.77, 2.44, 0.61, 0.15, and 0 nM (with a DMSO content of 0.1%).
After one hour, the substrate was added: 30 mM 11-deoxycorticosterone was diluted 1500-fold with culture medium, and 5 μL was dispensed per well to achieve a final concentration of […], followed by incubation for 16 hours.
Day 3: The cell supernatant was collected and added to 200 μL of a methanol solution containing internal standards (internal standards: 35 ng/mL ketoprofen or 7.5 ng/mL carbamazepine or 5 ng/mL diphenhydramine or 10 ng/mL tolbutamide). The mixture was vortexed and centrifuged (4000×g, 4° C., 5 minutes). Then, 100 μL of the supernatant was taken and mixed with 100 μL of pure water. The mixture was centrifuged (4000 g, 4° C., 15 min), and the supernatant was analyzed by ESI-LCMS/MS. • 4) Data analysis:
Ratio=Aldosterone peak area/Internal standard peak area
Control activity %=(Ratio test compound/Ratio DMSO)×100%
“Ratio test compound” represents the Ratio values at different concentrations of the test compound.
“Ratio DMSO” represents the Ratio value without the addition of the test compound. • X=Log (compound concentration) • Y=Control activity %
The IC50 of the test compound was determined by fitting to a nonlinear regression equation using XLfit 5.5.0.

T1 sequence (P11712 whole entry): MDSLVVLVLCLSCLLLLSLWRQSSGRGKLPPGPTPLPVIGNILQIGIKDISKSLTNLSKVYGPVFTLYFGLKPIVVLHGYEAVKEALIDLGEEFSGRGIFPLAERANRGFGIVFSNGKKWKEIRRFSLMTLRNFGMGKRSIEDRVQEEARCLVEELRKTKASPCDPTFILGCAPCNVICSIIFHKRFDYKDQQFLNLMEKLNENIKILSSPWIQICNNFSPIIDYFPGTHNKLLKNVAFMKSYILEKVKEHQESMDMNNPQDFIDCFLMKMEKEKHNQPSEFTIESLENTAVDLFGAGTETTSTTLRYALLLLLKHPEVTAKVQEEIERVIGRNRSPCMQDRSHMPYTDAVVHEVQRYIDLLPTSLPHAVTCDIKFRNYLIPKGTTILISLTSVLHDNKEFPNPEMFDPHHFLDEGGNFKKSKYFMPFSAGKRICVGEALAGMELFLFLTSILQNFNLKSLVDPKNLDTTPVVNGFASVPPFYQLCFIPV
T2 sequence (P10635 whole entry): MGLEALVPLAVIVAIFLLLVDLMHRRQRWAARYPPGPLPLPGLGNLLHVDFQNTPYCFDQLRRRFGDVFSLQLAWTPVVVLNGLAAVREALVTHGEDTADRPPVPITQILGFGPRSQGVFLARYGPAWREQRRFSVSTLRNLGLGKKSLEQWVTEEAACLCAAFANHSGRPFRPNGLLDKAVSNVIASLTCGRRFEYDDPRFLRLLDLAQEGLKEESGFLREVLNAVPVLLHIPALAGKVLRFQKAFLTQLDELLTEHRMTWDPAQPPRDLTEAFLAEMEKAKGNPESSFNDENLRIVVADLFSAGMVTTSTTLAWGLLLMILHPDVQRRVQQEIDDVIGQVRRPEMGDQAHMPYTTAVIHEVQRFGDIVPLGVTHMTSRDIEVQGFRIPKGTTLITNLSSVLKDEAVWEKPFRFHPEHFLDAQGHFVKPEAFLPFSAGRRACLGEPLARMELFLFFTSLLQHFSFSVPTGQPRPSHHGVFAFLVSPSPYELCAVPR

Consider `CCC(=O)N[C@H]1CCOc2c(-c3ccc4c(c3)CCC(=O)N4C)cncc21` (single isomer, unassigned) [Compound 037], for which the CLint scaled at 1 µM in data set [1] is under 8.6 mL/min/kg. In addition, in data set [2], the fraction unbound (usually the share of the substance not bound to proteins or other matrix) at 4 h was 0.354. Also, the bioavailability came to 67% in data set [3] and 157% in data set [4]. Further, the half-life (commonly the time in which the quantity being followed falls by half) in data set [3] is 5.75 h; in data set [4] it was 2.36 h. Also, the Cmax (commonly the peak of the concentration-time curve) in data set [3] came out at 1.32 µM; in data set [4], 8.29 µM. Also, the AUC(0-t) at 24 h came out at 10 µM·h in data set [3] (read-out: AUC0-24 h) and 49.9 µM·h in data set [4] (read-out: AUC0-24 h). The IC50 was over 50 µM on CYP2C9, over 50 µM at CYP2D6 and 0.0142 µM against human CYP11B2.

The values above are taken from patent US20260317314A1, “NITROGEN-CONTAINING HETEROCYCLIC COMPOUND AND USE THEREOF” (JIANGSU DEYUAN PHARMACEUTICAL CO.,LTD., priority 2023, published 2026).
